{"source": "paper PMC5428509", "about": "“Irreversible inhibition of BTK kinase by a novel highly selective inhibitor CHMFL-BTK-11 suppresses inflammatory response in rheumatoid arthritis model” (Scientific Reports, 2017)", "experiment_in_all_cases": "biochemical", "design_in_all_cases": "KinomeScan competition binding panel (DiscoveRx), percent of control at 1 uM", "conditions_in_all_cases": "read-out: Percent Control", "key": {"ACVR1B": {"target": "ACVR1B (Homo sapiens, UniProt P36896)", "summary_of_the_method": "(§1)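 KinomeScan technology used to profile binding across a panel of 456 kinases and mutants.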"}, "ASK1": {"target": "T1, ASK1 (Homo sapiens, UniProt Q99683)", "T1 construct": "gene MAP3K5", "summary_of_the_method": "as §1"}, "AURKC": {"target": "AURKC (Homo sapiens, UniProt Q9UQB9)", "summary_of_the_method": "as §1"}, "BRK": {"target": "T2, BRK (Homo sapiens, UniProt Q13882)", "T2 construct": "gene PTK6", "summary_of_the_method": "as §1"}, "CAMK2D": {"target": "CAMK2D (Homo sapiens, UniProt Q13557)", "sequence (Q13557 whole entry)": "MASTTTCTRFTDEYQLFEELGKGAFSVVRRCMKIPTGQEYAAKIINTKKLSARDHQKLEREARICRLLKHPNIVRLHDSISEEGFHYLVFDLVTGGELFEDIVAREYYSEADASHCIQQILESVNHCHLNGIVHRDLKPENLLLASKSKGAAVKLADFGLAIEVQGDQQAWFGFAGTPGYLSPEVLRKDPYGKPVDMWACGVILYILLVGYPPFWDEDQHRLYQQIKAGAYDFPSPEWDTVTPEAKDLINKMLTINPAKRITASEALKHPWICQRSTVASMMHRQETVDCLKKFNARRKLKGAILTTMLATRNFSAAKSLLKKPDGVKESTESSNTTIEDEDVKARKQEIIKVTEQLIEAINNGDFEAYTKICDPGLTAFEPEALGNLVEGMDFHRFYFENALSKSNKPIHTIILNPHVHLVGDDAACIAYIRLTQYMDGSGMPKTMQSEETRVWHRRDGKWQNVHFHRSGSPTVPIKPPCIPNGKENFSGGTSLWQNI", "summary_of_the_method": "as §1"}, "CAMK4": {"target": "CAMK4 (Homo sapiens, UniProt Q16566)", "sequence (Q16566 whole entry)": "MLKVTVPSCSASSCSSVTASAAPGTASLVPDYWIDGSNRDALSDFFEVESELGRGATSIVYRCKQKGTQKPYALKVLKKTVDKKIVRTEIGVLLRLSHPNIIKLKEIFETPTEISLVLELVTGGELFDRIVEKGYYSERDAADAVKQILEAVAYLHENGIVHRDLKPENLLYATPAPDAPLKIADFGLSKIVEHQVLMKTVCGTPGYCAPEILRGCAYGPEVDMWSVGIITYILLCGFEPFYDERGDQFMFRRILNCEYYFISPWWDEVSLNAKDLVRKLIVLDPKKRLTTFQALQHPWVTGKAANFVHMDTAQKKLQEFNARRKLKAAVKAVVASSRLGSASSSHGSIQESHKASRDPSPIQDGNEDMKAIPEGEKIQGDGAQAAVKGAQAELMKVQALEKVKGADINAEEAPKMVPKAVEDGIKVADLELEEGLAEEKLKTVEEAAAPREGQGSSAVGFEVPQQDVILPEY", "summary_of_the_method": "as §1"}, "CAMKK2": {"target": "CAMKK2 (Homo sapiens, UniProt Q96RR4)", "summary_of_the_method": "as §1"}, "CASK": {"target": "CASK (Homo sapiens, UniProt O14936)", "summary_of_the_method": "as §1"}, "CLK1": {"target": "CLK1 (Homo sapiens, UniProt P49759)", "sequence (P49759 whole entry)": "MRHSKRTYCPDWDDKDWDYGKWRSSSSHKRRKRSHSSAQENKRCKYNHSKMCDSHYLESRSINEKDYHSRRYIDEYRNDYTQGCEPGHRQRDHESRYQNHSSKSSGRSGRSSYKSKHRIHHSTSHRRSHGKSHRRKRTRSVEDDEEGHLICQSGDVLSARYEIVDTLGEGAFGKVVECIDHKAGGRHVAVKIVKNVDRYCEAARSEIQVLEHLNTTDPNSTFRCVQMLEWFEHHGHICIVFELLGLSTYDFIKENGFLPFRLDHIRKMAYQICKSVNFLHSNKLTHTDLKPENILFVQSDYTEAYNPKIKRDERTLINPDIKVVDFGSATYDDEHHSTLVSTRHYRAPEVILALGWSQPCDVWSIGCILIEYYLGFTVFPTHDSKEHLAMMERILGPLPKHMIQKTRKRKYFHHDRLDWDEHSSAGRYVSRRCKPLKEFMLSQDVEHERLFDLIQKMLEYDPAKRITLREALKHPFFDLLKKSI", "summary_of_the_method": "as §1"}, "CSNK1A1": {"target": "CSNK1A1 (Homo sapiens, UniProt P48729)", "summary_of_the_method": "as §1"}, "DRAK1": {"target": "T3, DRAK1 (Homo sapiens, UniProt Q9UEE5)", "T3 construct": "gene STK17A", "summary_of_the_method": "as §1"}, "EPHB3": {"target": "EPHB3 (Homo sapiens, UniProt P54753)", "summary_of_the_method": "as §1"}, "FES": {"target": "FES (Homo sapiens, UniProt P07332)", "sequence (P07332 whole entry)": "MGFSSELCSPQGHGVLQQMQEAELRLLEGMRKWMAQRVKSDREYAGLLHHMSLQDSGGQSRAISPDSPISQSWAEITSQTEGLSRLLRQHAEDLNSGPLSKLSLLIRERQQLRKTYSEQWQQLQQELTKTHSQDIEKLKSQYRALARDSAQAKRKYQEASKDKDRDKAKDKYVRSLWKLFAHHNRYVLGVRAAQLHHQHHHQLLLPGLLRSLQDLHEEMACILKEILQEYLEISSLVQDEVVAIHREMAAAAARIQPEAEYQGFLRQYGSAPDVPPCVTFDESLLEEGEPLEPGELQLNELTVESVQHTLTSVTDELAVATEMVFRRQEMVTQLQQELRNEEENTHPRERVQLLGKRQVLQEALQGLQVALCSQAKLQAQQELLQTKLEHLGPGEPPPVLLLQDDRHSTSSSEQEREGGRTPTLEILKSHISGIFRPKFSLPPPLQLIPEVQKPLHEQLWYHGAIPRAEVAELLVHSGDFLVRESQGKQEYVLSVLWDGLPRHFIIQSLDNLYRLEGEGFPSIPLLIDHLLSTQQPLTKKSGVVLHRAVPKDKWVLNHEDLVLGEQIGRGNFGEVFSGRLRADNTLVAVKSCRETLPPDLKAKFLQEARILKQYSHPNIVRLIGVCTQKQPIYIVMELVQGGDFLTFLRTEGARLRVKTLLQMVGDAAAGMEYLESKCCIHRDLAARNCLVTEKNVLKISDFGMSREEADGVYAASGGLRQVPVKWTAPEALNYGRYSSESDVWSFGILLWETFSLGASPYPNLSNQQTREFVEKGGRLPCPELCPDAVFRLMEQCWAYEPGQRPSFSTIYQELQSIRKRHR", "summary_of_the_method": "as §1"}, "GRK4": {"target": "GRK4 (Homo sapiens, UniProt P32298)", "sequence (P32298 whole entry)": "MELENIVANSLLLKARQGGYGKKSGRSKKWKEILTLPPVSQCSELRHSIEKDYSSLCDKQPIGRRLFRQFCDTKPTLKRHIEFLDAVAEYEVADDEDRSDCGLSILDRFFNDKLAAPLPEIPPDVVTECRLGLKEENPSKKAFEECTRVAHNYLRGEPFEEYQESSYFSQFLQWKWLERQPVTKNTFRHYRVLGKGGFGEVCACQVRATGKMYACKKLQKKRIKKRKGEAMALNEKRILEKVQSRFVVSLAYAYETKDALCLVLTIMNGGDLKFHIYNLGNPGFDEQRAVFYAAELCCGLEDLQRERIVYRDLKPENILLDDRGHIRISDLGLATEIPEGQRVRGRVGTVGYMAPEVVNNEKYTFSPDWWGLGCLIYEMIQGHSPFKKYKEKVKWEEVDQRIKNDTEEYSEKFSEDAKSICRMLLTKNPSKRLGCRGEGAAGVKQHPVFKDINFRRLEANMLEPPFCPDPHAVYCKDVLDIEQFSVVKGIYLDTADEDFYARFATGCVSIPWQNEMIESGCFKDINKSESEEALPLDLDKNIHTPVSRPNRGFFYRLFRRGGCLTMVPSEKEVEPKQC", "summary_of_the_method": "as §1"}, "IKK-alpha": {"target": "T4, IKK-alpha (Homo sapiens, UniProt O15111)", "T4 construct": "gene CHUK", "summary_of_the_method": "as §1"}, "[1]": {"target": "T5, JAK2(JH1domain-catalytic) (Homo sapiens, UniProt O60674)", "T5 construct": "JH1domain-catalytic", "summary_of_the_method": "as §1"}, "KIT-autoinhibited": {"target": "KIT-autoinhibited (Homo sapiens, UniProt P10721)", "summary_of_the_method": "as §1"}, "LIMK1": {"target": "LIMK1 (Homo sapiens, UniProt P53667)", "summary_of_the_method": "as §1"}, "MAP4K2": {"target": "MAP4K2 (Homo sapiens, UniProt Q12851)", "sequence (Q12851 whole entry)": "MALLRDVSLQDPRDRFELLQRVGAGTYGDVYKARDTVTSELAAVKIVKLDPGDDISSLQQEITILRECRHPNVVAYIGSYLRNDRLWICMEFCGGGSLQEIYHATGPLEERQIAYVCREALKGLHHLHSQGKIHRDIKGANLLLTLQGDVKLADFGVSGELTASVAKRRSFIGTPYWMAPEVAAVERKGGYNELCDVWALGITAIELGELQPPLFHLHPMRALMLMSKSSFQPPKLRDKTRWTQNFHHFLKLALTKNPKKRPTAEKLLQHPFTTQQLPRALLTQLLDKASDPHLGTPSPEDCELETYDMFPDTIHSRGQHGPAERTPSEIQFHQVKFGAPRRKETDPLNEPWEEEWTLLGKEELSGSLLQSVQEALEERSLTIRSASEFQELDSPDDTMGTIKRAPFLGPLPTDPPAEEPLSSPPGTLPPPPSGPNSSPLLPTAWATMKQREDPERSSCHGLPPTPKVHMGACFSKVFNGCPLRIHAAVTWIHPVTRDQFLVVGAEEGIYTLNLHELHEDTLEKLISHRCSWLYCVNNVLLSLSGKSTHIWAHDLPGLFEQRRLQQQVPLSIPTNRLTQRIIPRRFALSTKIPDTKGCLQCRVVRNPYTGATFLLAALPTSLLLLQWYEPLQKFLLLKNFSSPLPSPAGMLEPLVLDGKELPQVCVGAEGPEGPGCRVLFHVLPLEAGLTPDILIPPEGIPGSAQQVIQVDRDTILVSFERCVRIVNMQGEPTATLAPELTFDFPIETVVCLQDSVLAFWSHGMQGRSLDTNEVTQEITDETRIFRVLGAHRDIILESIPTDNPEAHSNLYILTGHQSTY", "summary_of_the_method": "as §1"}, "MAP4K4": {"target": "MAP4K4 (Homo sapiens, UniProt O95819)", "sequence (O95819 whole entry)": "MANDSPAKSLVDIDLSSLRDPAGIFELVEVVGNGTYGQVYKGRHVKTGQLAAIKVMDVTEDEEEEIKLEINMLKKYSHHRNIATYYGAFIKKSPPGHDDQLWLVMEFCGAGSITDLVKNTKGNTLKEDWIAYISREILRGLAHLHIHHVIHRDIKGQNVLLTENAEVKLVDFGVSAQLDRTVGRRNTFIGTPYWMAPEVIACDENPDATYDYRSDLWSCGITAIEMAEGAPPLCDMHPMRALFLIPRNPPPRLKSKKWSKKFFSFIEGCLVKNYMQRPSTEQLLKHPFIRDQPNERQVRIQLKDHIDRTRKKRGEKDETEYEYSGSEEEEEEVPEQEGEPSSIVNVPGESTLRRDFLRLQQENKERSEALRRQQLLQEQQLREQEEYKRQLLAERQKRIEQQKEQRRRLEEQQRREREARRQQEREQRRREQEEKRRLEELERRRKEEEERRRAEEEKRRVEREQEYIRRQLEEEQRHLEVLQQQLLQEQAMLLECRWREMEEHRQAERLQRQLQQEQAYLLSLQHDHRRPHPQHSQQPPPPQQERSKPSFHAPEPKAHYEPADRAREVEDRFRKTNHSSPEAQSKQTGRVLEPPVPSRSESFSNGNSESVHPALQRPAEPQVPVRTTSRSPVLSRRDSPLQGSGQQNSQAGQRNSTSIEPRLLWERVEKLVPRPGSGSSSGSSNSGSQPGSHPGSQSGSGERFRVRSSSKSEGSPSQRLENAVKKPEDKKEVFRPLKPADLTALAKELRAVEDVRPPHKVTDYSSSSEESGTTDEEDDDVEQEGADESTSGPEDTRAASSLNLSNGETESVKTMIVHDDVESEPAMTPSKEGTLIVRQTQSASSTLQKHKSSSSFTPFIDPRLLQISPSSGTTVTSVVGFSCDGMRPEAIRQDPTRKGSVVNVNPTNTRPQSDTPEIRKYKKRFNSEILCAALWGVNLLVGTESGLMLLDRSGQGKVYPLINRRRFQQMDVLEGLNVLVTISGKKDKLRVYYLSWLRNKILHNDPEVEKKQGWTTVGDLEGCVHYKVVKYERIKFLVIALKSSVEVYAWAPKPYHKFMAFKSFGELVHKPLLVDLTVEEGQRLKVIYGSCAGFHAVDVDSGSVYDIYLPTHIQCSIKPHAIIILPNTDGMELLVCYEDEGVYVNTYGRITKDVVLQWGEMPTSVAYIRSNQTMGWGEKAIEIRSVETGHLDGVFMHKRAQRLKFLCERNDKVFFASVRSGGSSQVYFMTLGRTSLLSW", "summary_of_the_method": "as §1"}, "NEK3": {"target": "NEK3 (Homo sapiens, UniProt P51956)", "summary_of_the_method": "as §1"}, "PIK3CA(C420R)": {"target": "PIK3CA(C420R) (Homo sapiens, UniProt P42336, C420R)", "summary_of_the_method": "as §1"}, "PIK3CB": {"target": "PIK3CB (Homo sapiens, UniProt P42338)", "summary_of_the_method": "as §1"}, "RET": {"target": "RET (Homo sapiens, UniProt P07949)", "summary_of_the_method": "as §1"}, "ROS1": {"target": "ROS1 (Homo sapiens, UniProt P08922)", "summary_of_the_method": "as §1"}}}
{"smiles": "C=CC(=O)Nc1cc(-n2c(=O)ccc3cnc4ccc(-n5cccn5)cc4c32)ccc1C", "note": "[CHMFL-BTK-11]", "values": [{"measurement": "remaining binding at 1 µM", "setting": "ACVR1B", "value": 100, "unit": "%"}, {"measurement": "remaining binding at 1 µM", "setting": "ASK1", "value": 90, "unit": "%"}, {"measurement": "remaining binding at 1 µM", "setting": "AURKC", "value": 98, "unit": "%"}, {"measurement": "remaining binding at 1 µM", "setting": "BRK", "value": 100, "unit": "%"}, {"measurement": "remaining binding at 1 µM", "setting": "CAMK2D", "value": 80, "unit": "%"}, {"measurement": "remaining binding at 1 µM", "setting": "CAMK4", "value": 91, "unit": "%"}, {"measurement": "remaining binding at 1 µM", "setting": "CAMKK2", "value": 78, "unit": "%"}, {"measurement": "remaining binding at 1 µM", "setting": "CASK", "value": 86, "unit": "%"}, {"measurement": "remaining binding at 1 µM", "setting": "CLK1", "value": 92, "unit": "%"}, {"measurement": "remaining binding at 1 µM", "setting": "CSNK1A1", "value": 100, "unit": "%"}, {"measurement": "remaining binding at 1 µM", "setting": "DRAK1", "value": 96, "unit": "%"}, {"measurement": "remaining binding at 1 µM", "setting": "EPHB3", "value": 97, "unit": "%"}, {"measurement": "remaining binding at 1 µM", "setting": "FES", "value": 90, "unit": "%"}, {"measurement": "remaining binding at 1 µM", "setting": "GRK4", "value": 94, "unit": "%"}, {"measurement": "remaining binding at 1 µM", "setting": "IKK-alpha", "value": 96, "unit": "%"}, {"measurement": "remaining binding at 1 µM", "setting": "[1]", "value": 78, "unit": "%"}, {"measurement": "remaining binding at 1 µM", "setting": "KIT-autoinhibited", "value": 83, "unit": "%"}, {"measurement": "remaining binding at 1 µM", "setting": "LIMK1", "value": 100, "unit": "%"}, {"measurement": "remaining binding at 1 µM", "setting": "MAP4K2", "value": 98, "unit": "%"}, {"measurement": "remaining binding at 1 µM", "setting": "MAP4K4", "value": 97, "unit": "%"}, {"measurement": "remaining binding at 1 µM", "setting": "NEK3", "value": 87, "unit": "%"}, {"measurement": "remaining binding at 1 µM", "setting": "PIK3CA(C420R)", "value": 74, "unit": "%"}, {"measurement": "remaining binding at 1 µM", "setting": "PIK3CB", "value": 100, "unit": "%"}, {"measurement": "remaining binding at 1 µM", "setting": "RET", "value": 100, "unit": "%"}, {"measurement": "remaining binding at 1 µM", "setting": "ROS1", "value": 94, "unit": "%"}]}
